Experiments:
Type in all cases: cell-based
MCF-7 cells = assay: Proliferation assay (IncuCyte cell confluence), MCF-7; settings: Homo sapiens, MCF7, concentration for 50% of maximal inhibition of cell proliferation
Procedure: (§1) 1-3×10^3 cells were seeded in 96-well plates in duplicates and treated at the indicated compound concentrations. Cells were monitored using the IncuCyte® live cell imaging system (Essen BioScience™, Ann Arbor, Mich.) which was placed in a cell culture incubator operated at 37° C. and 5% CO2. Cell confluence was determined using calculations derived from phase-contrast images. The concentration for 50% of maximal inhibition of cell proliferation (GI50) values were determined by fitting to a standard four-parameter logistic using GraphPad Prism® v5. Graphs depicting the GI50s of select EZH2 degraders/disruptors described here for various cancer cell lines are shown in FIGS. 4-49.

MDA-MB-468 cells = assay: Proliferation assay (IncuCyte cell confluence), MDA-MB-468; settings: Homo sapiens, concentration for 50% of maximal inhibition of cell proliferation
Procedure: as §1

HCC1187 cells = assay: Proliferation assay (IncuCyte cell confluence), HCC1187; settings: Homo sapiens, concentration for 50% of maximal inhibition of cell proliferation
Procedure: as §1

HCC1170 cells = assay: Proliferation assay (IncuCyte cell confluence), HCC1170; settings: concentration for 50% of maximal inhibition of cell proliferation
Procedure: as §1

BT549 cells = assay: Proliferation assay (IncuCyte cell confluence), BT549; settings: Homo sapiens, BT-549, concentration for 50% of maximal inhibition of cell proliferation
Procedure: as §1

HCC1954 cells = assay: Proliferation assay (IncuCyte cell confluence), HCC1954; settings: Homo sapiens, concentration for 50% of maximal inhibition of cell proliferation
Procedure: as §1

Structure (SMILES)	GI50 (MCF-7 cells)	GI50 (MDA-MB-468 cells)	GI50 (HCC1187 cells)	GI50 (HCC1170 cells)	GI50 (BT549 cells)	GI50 (HCC1954 cells)
Cc1cc(C)c(CNC(=O)c2cc(-c3ccc(N4CCN(C(=O)CC56CC7CC(CC(C7)C5)C6)CC4)nc3)cc3c2cnn3C(C)C)c(=O)[nH]1 [AM16-92A, 6-(6-(4-(2-((1s,3s)-adamantan-1-yl)acetyl)piperazin-1-yl)pyridin-3-yl)-N-((4,6-dimethyl-2-oxo-1,2-dihydropyridin-3-yl)methyl)-1-isopropyl-1H-indazole-4-carboxamide]	1 µM		1.1 µM			
Cc1cc(C)c(CNC(=O)c2cc(-c3ccc(N4CCN(CCNC(=O)[C@H](C)CCC56CC7CC(CC(C7)C5)C6)CC4)nc3)cc3c2cnn3C(C)C)c(=O)[nH]1 [AM16-105A, 6-(6-(4-(2-((2R)-4-((1r,3S)-adamantan-1-yl)-2-methyl-butanamido)ethyl)piperazin-1-yl)pyridin-3-yl)-N-((4,6-dimethyl-2-oxo-1,2-dihydropyridin-3-yl)methyl)-1-isopropyl-1H-indazole-4-carboxamide]	2.3 µM		1.2 µM			
Cc1cc(C)c(CNC(=O)c2cc(-c3ccc(N4CCN(CCNC(=O)C56CC7CC(CC(C7)C5)C6)CC4)nc3)cc3c2cnn3C(C)C)c(=O)[nH]1 [AM16-101A, 6-(6-(4-(2-((1s,3s)-adamantane-1-carboxamido)ethyl)piperazin-1-yl)pyridin-3-yl)-N-((4,6-dimethyl-2-oxo-1,2-dihydropyridin-3-yl)methyl)-1-isopropyl-1H-indazole-4-carboxamide]	0.69 µM	1.1 µM				
CCCc1cc(C)[nH]c(=O)c1CNC(=O)c1cc(-c2ccc(N3CCN(CCNC(=O)CC45CC6CC(CC(C6)C4)C5)CC3)nc2)cc2c1cnn2C(C)C [AM16-10A, 6-(6-(4-(2-(2-((3r,5r,7r)-adamantan-1-yl)acetamido)ethyl)piperazin-1-yl)pyridin-3-yl)-1-isopropyl-N-((6-methyl-2-oxo-4-propyl-1,2-dihydropyridin-3-yl)methyl)-1H-indazole-4-carboxamide]	1.2 µM	1.4 µM	0.57 µM	1.2 µM		
Cc1cc(C)c(CNC(=O)c2cc(-c3ccc(N4CCN(CCNCCC56CC7CC(CC(C7)C5)C6)CC4)nc3)cc3c2cnn3C(C)C)c(=O)[nH]1 [AM16-103A, 6-(6-(4-(2-((2-((3r,5r,7r)-adamantan-1-yl)ethyl)amino)ethyl)piperazin-1-yl)pyridin-3-yl)-N-((4,6-dimethyl-2-oxo-1,2-dihydropyridin-3-yl)methyl)-1-isopropyl-1H-indazole-4-carboxamide]		1.2 µM			1.4 µM	2.1 µM

More lines, now with the values ahead:

GI50 (MCF-7 cells)	GI50 (MDA-MB-468 cells)	GI50 (HCC1187 cells)	GI50 (HCC1170 cells)	GI50 (BT549 cells)	GI50 (HCC1954 cells)	Structure (SMILES)
0.69 µM	0.87 µM					Cc1cc(C)c(CNC(=O)c2cc(-c3ccc(N4CCN(CCNC(=O)C56CC7CC(C)(CC(C)(C7)C5)C6)CC4)nc3)cc3c2cnn3C(C)C)c(=O)[nH]1 [AM29-22A, N-((4,6-dimethyl-2-oxo-1,2-dihydropyridin-3-yl)methyl)-6-(6-(4-(2-((1R,3S)-3,5-dimethyladamantane-1-carboxamido)ethyl)piperazin-1-yl)pyridin-3-yl)-1-isopropyl-1H-indazole-4-carboxamide]
0.7 µM	0.71 µM					Cc1cc(C)c(CNC(=O)c2cc(-c3ccc(N4CCN(CCC(=O)NCC56CC7CC(CC(C7)C5)C6)CC4)nc3)cc3c2cnn3C(C)C)c(=O)[nH]1 [AM29-33A, 6-(6-(4-(3-((((3r,5r,7r)-adamantan-1-yl)methyl)amino)-3-oxopropyl)piperazin-1-yl)pyridin-3-yl)-N-((4,6-dimethyl-2-oxo-1,2-dihydropyridin-3-yl)methyl)-1-isopropyl-1H-indazole-4-carboxamide]
0.28 µM	0.2 µM					Cc1cc(C)c(CNC(=O)c2cc(-c3ccc(N4CCN(CCNC(=O)CC56CC7CC(C)(CC(C)(C7)C5)C6)CC4)nc3)cc3c2cnn3C(C)C)c(=O)[nH]1 [AM29-21A, N-((4,6-dimethyl-2-oxo-1,2-dihydropyridin-3-yl)methyl)-6-(6-(4-(2-(2-((1r,3R,5S,7r)-3,5-dimethyladamantan-1-yl)acetamido)ethyl)piperazin-1-yl)pyridin-3-yl)-1-isopropyl-1H-indazole-4-carboxamide]
0.35 µM	0.54 µM	0.65 µM		2.2 µM	2.7 µM	Cc1cc(C)c(CNC(=O)c2cc(-c3ccc(N4CCN(CCNC(=O)CC56CC7CC(CC(C7)C5)C6)CC4)nc3)cc3c2cnn3C(C)C)c(=O)[nH]1 [XY019-43, 6-(6-(4-(2-(2-((3r,5r,7r)-adamantan-1-yl)acetamido)ethyl)piperazin-1-yl)pyridin-3-yl)-N-((4,6-dimethyl-2-oxo-1,2-dihydropyridin-3-yl)methyl)-1-isopropyl-1H-indazole-4-carboxamide]
	1.8 µM			2.5 µM	3.9 µM	Cc1cc(C)c(CNC(=O)c2cc(-c3ccc(N4CCN(CCNC(=O)CC5C6CC7CC(C6)CC5C7)CC4)nc3)cc3c2cnn3C(C)C)c(=O)[nH]1 (stereo not drawn) [AM29-182A, 6-(6-(4-(2-(2-((1r,3r,5r,7r)-adamantan-2-yl)acetamido)ethyl)piperazin-1-yl)pyridin-3-yl)-N-((4,6-dimethyl-2-oxo-1,2-dihydropyridin-3-yl)methyl)-1-isopropyl-1H-indazole-4-carboxamide]

Reference: patent US11510920B2, “Compositions and methods for treating EZH2-mediated cancer” (Icahn School of Medicine at Mount Sinai, priority 2016, dated 2022)
